# Laboratory results published in patent US20260144793A1, “METHODS OF TREATING CANCER” (AMGEN INC., priority 2022, published 2026).
# Legend:
# [1] = tested on: phosphorylation of extracellular signal-regulated kinase (ERK); settings: preclinical studies; cited from earlier work
# [2] = tested on: patients with KRAS G12C-mutated NSCLC, CRC, or other solid tumors; settings: N = 27, all RMC-4630 doses with sotorasib 960 mg QD; TRAEs related to the labelled drug (combination: either drug)
# Source text: Note that D1D4 indicates administration of Day 1 and Day 4 of each 7 days.
# Dose exploration will begin with treating 3-4 subjects at Dose Level 1. The study dose-limiting toxicity (DLT) period is 21 days. Once all subjects enrolled at a certain dose level and schedule are DLT evaluable, a Dose Level Review Team (DLRT) meeting will be convened. For any dose level (including Dose Level 1), and depending on observed safety data, the following may occur: 1) dose escalation to the next highest dose level or 2) additional enrollment to the current dose level or 3) dose de-escalation to the next lowest dose level. Rules for dose-escalation/de-escalation are derived using a modified Toxicity Probability Interval-2 (mTPI-2) model (Guo et al, 2017) with a target toxicity probability of 0.30 (Table 2)
# The grading of adverse events will be based on the guidelines provided in the CTCAE version 5.0. […] A subject without a DLT will not be DLT evaluable if the date of decision to end both investigational products is before the completion of the DLT window.
# The adverse event grading scale to be used for this study will be the CTCAE v5.0. The investigator is responsible for ensuring that all serious adverse events observed by the investigator or reported by the subject that occur after the signing of the informed consent through the safety follow-up visit or 30 days after last day of dosing interval of investigational product(s)/protocol-required therapies, whichever is later, are reported using the Events CRF. The criteria for grade 4 in the CTCAE grading scale differs from the regulatory criteria for serious adverse events. If adverse events correspond to a grade 4 CTCAE toxicity grading scale criteria (e.g., laboratory abnormality reported as grade 4 without manifestation of life-threatening status), it will be left to the investigator's judgment to also report these abnormalities as serious adverse events. For any adverse event that applies to this situation, comprehensive documentation of the event's severity must be recorded in the subject medical records. If the investigator becomes aware of serious adverse events suspected to be related to investigational products after the protocol-required reporting period is complete, then these serious adverse events will be reported within 24 hours following the investigator's awareness of the event using the Events CRF. Since a study endpoint is overall survival, the investigator will also need to collect/report fatal serious adverse events (regardless of causality) within 24 hours following investigator's awareness of the event. […] However, if the investigator becomes aware of serious adverse events suspected to be related to investigational products, then these serious adverse events will be reported within 24 hours following the investigator's awareness of the event. Serious adverse events reported outside of the protocol-required reporting period will be captured within the safety database as clinical trial cases and handled accordingly based on relationship to investigational product. If further safety related data is needed to fulfill any regulatory reporting requirements for a reportable event, then additional information may need to be collected from the subject's records after the subject ends the study.
# The primary endpoint was safety/tolerability. Secondary endpoints included objective response rate per RECIST 1.1 and pharmacokinetics.
# [3] = Phase 1b study of sotorasib in combination with RMC-4630: pharmacokinetic analysis; assay type: in vivo, human; settings: sotorasib 960 mg QD + RMC-4630 100, 140 or 200 mg; compared with monotherapy studies
# Source text: The primary endpoint was safety/tolerability.
# [4] = Concomitant administration of sotorasib with acid reducing agents; assay type: in vivo; settings: with proton pump inhibitors (e.g., omeprazole) or H2-receptor antagonists (e.g., famotidine)
smiles,measurement,setting,value
"C=CC(=O)N1CCN(c2nc(=O)n(-c3c(C)ccnc3C(C)C)c3nc(-c4c(O)cccc4F)c(F)cc23)[C@@H](C)C1 [Sotorasib, 6-fluoro-7-(2-fluoro-6-hydroxyphenyl)-(1M)-1-[4-methyl-2-(propan-2-yl)pyridin-3-yl]-4-[(2S)-2-methyl-4-(prop-2-enoyl)piperazin-1-yl]pyrido[2,3-d]pyrimidin-2 (1H)-one]",Inhibition of ERK phosphorylation,[1],inhibited nearly all detectable phosphorylation
same,"AST increased, All Grades, %",[2],4%
same,"AST increased, Grade 3, %",[2],4%
same,"Ascites, All Grades, %",[2],4%
same,"Ascites, Grade 3, %",[2],4%
same,"Colitis, All Grades, %",[2],4%
same,"Colitis, Grade 3, %",[2],4%
same,"Diarrhea, All Grades, %",[2],26%
same,"Diarrhea, Grade 3, %",[2],7%
same,"Dry mouth, All Grades, %",[2],11%
same,"Dyspnea, All Grades, %",[2],4%
same,"Dyspnea, Grade 3, %",[2],4%
same,"Edema (general, peripheral, periorbital, facial), All Grades, %",[2],26%
same,"Fatigue, All Grades, %",[2],11%
same,"Total TRAE, All Grades, %",[2],56%
same,"Total TRAE, Grade 3, %",[2],22%
same,Average exposure in the combination,[3],consistent with distributions observed in monotherapy studies
same,Sotorasib concentrations on concomitant administration,[4],decreased sotorasib concentrations
